Like-named read-outs stand apart in the source and are kept apart here.
What was measured:
[1] = Solubility product of the silver salts (Table II); type: physicochemical; conditions: for Ksp: silver salt
Source text: Solubility product measurements were made for the silver salt of phenylmercaptotetrazole (PMT) at pH 13.5 and for the silver salt of compound II at pH 7 and pH 13.5 (above and below the pka of the oxime substituent).

[2] = Solubility of silver salts in presence of excess anion (Table III); type: physicochemical
Protocol: The solubilities of the silver salts of PMT and compound II in the presence of excess amounts of their anions were measured at pH 7.0 and 13.5. Each solution was 4×10^-3 molar in silver. The results are shown in Table III wherein the solubility data is expressed in μmoles/liter of total silver.

[3] = silver salt, pH 7; Z. C. H. Tan, Photogr. Sci. Eng. 19, 17 (1975); cited from earlier work
[4] = Ionization and stability in aqueous alkaline processing composition; type: physicochemical
Source text: However, it has been shown by experimentation that incorporating compound XI in a film unit according to the invention will provide advantageous results. Thus, it would appear that compound XI undergoes a change in aqueous alkaline processing composition and that the acetyl substituent is a precursor of a group which has the requisite properties described above which provide the desired results. […] It is therefore preferred to incorporate the compound elsewhere in the film unit, for example, in the photosensitive element.

Ksp ([1]; pH 7)	Ksp ([1]; pH 13.5)	stability in aqueous alkaline processing composition ([4]; about a week or more in processing composition)	SMILES	effect of pH / ionization on solubility of the silver salt ([1]; pH 7 vs pH 13.5)	silver solvent behavior at high pH [2]	Ksp [3]	ionization of acetyl group to an anion ([4]; aqueous alkaline photographic processing composition)
~ 1 × 10^-16	2 × 10^-15	–	CC(=NO)c1ccc(-n2nnnc2S)cc1 [Compound II]	increased the solubility of the silver salt of compound II by an order of magnitude	weak to moderate silver solvent at high pH	–	–
–	4 × 10^-16	–	Sc1nnnn1-c1ccccc1 [PMT, 1-phenyl-5-mercaptotetrazole, reference compound]	–	PMT is not	3 × 10^-16	–
–	–	long term instability characteristics	CC(=O)c1ccc(-n2nnnc2S)cc1 [XI]	–	–	–	does not ionize to any appreciable extent

From US4390613A, “Diffusion transfer photographic system utilizing substituted phenylmercaptoazoles” (Polaroid Corporation, priority 1981, dated 1983)
